test: Mouse Liver Microsome stability assay; assay type: in vitro ADME; details: mouse liver microsomes

| Compound | WuXi Microsomal stability (Mouse Extraction Ratio) |
| --- | --- |
| COc1ccc(-c2ncccn2)cc1Nc1ncnc2[nH]nc(-c3cc[nH]n3)c12 [compound 8185] | 0.8 |
| FC(F)Oc1ccc(-c2ccccc2)cc1Nc1ncnc2[nH]nc(-c3cc[nH]n3)c12 [compound 8179] | 0.6 |
| COc1ncc(-c2ccccc2)cc1Nc1ncnc2[nH]nc(-c3cc[nH]n3)c12 [compound 8177] | 0.8 |
| COc1ccc(-c2cnccn2)cc1Nc1ncnc2[nH]nc(-c3cc[nH]n3)c12 [compound 8184] | 0.9 |
| COc1ccc(-c2ccccc2)cc1Nc1ncnc2[nH]nc(-c3n[nH]cc3C)c12 [compound 8186] | 0.7 |
| COc1cc(C)c(-c2ccccc2)cc1Nc1ncnc2[nH]nc(-c3cc[nH]n3)c12 [compound 8134] | 0.7 |
